Where no end group is shown, it is not given here.
Experiments:
Drp1 = assay: Mitochondrial Drp1 content in brain of wild-type mice; format: in vivo, mouse; conditions: 3 mg/Kg/day, subcutaneous osmotic pump, 8-week treatment, WT mice; Drp1 relative to ALDH2; n = 4 mice
Description: (a) Quantification of mitochondrial Drp1 content relative to ALDH2 (a mitochondrial matrix enzyme) in the mitochondrial fraction isolated from total brain lysate of wild-type mice (Western blot shown in Fig. S3B) (n = 4 mice). (b) ATP content in brain tissue of wild-type mice (n = 4 mice, 2 replicates). (c) Representative transmission electron microscopy images of the striatum from wild-type mice. […] The first principal component represents 42% of the variation. (f) Local linear embedding dimensionality reduction and visualization of all behaviors collected weekly from TAT- (black) or P259- (purple) treated WT and TAT- (white) treated R6/2 mice over the course of 8 weeks. […] All behavior and survival tests were conducted by an experienced observer who was blinded to the treatment groups. Data are mean ± s.e.
Five-week old R6/2 HD mice and their wild-type littermates (a total of 60 mice) were implanted subcutaneously with a 28-d Alzet osmotic pump with either P259-TAT or TAT control peptide (15 mice per group) to be delivered continuously at a rate of 3 mg/Kg/day, as previously described. […]
(§1) The effect of peptides on GTPase activity of Drp1 was measured by incubating recombinant Drp1 […]
(§2) for 1 hour at 37 °C. GTPase activity was measured using a colorimetric GTPase assay kit (Novus Biologicals, CO, USA) as instructed by the manufacturer. […]

[1] = tested on: fission and fusion proteins; assay: Expression of fission and fusion proteins, mitochondrial content and mitophagy in brain of wild-type mice; format: in vivo, mouse; conditions: 3 mg/Kg/day, subcutaneous osmotic pump, 8 weeks, WT mice
Experimental: Five-week old R6/2 HD mice and their wild-type littermates (a total of 60 mice) were implanted subcutaneously with a 28-d Alzet osmotic pump with either P259-TAT or TAT control peptide (15 mice per group) to be delivered continuously at a rate of 3 mg/Kg/day, as previously described. All mice were implanted twice for a total of an 8-week treatment. 20 of the WT mice were implanted 3 times for a total of a 12-week treatment at 3 mg/Kg/day. All the experiments were in accordance with protocols approved by the Institutional Animal Care and Use Committee of Stanford University and were performed based on the National Institutes of Health Guide for the Care and Use of Laboratory Animals. All methods were carried out in accordance with the relevant guidelines and regulations. […]
membrane in brains of wild-type mice, while not affecting expression levels of other fission and fusion machinery proteins. Total lysate (a,c) and mitochondrial fraction (b) from brain […]
Represented western blots are cropped from full blots shown in the Expanded Western Blots section of the Supplementary Information. […]
Supplementary Figure 4. Principal component analysis of behaviors from wild-type mice treated with P259. a. The top 20% of behaviors collected from wild-type mice treated with 3 […]
ANOVA F- and mutual information scores for each behavior (week designation corresponds to mouse age when the behavior was observed). b. The eigenvector of the first principal component, representing 42% of the variation of the data. […]
finally washed three times with RIPA buffer. Finally, beads were resuspended in 20 µL of Laemmli […]
as §1, §2

## YGRKKRRQRRRGSGIIQLPEIVVV-NH2 (C-terminus assumed) [P259]
Drp1
  reduction of mitochondrial Drp1 association (brain): ~ 80%
[1]
  expression levels of both fission and fusion proteins: no effect
  mitophagy: no effect
  overall mitochondrial content: no effect
